Read-outs that look alike come from different tables or passages of the source.

The subject of one assay is CHP-212 cells. The following applies: DJ-1 siRNA, 10 nM DHT, 300 μM H2O2.
The conditions of assay [1]: most potent of the male steroid hormones; cited from earlier work.
Assay [2] concerns tyrosine hydroxylase. The following applies: CHP-212 cells pre-transfected with DJ-1-specific siRNA, increasing amount of DHT for forty-eight hours. On the procedure:
The procedures for western blotting and immunoprecipitation were described previously^48. For DJ-1 immunoprecipitation, cells were lysed in denaturing RIPA-DOC buffer (50 mm Tris-HCl buffer (pH 8.0), containing 150 mM NaCl, 1% Triton X-100, 0.1% SDS, 1% sodium deoxycholate, 10 mM EDTA and a protease inhibitor cocktail (1× protease cocktail, Roche (Indianapolis, Ind.). For endogenous DJ-1 and PSF co-immunoprecipitation, cells were lysed in non-denaturing lysis buffer containing 1% Triton-X100. […] Antibody used for immunoprecipitation: rabbit polyclonal anti-DJ-15. Antibodies for western blotting include: a mouse monoclonal anti-tyrosine hydroxylase (Sigma); monoclonal (Stressgen, San Diego, Calif.) and polyclonal anti-DJ-1; a goat anti-β-actin (Santa Cruz Biotechnology, Santa Cruz, Calif.); a rabbit polyclonal anti-androgen receptor (Upstate, Charlottesville, Va.); a rabbit polyclonal anti-AKT and a mouse monoclonal anti-Phospho-AKT (Cell signaling, Beverly, Mass.). Antibodies used for immunoprecipitation included a mouse monoclonal anti-PSF (Sigma) and a rabbit polyclonal anti-DJ-1^18.

For another assay, the system named is AKT. The following applies: 10 nM DHT. On the procedure: DJ-1 likely serves as a transcriptional co-activator of androgen receptor^50,51. To determine whether androgen receptor and androgen activate the AKT pathway in human dopaminergic cell lines, native SH-SY5Y cells were treated with 10 nM of […], and levels of phosphorylated AKT was assayed by Western blot. […] The role of androgen receptor signaling in the activation of AKT was also tested in SH-SY5Y cells that were transiently transfected with human androgen receptor then treated with […].
(§1) Human CHP-212 cells were purchased from ATCC and maintained in cell culture media, EMEM/F-12 (50%/50%) containing 10% FBS and antibiotics. Native SH-SY5Y cells were maintained in DMEM supplemented with 10% FBS and antibiotics. For immunofluorescence, cells were grown on coverslips. […] Rat tyrosine hydroxylase-luc reporter plasmid (Kim et al Biochem Biophys Res Commun. 2003 Dec. 26; 312(4):950-7) and the pTK-Renilla luciferase plasmid for transfection control were obtained from Promega (Madison, Wis.). Human androgen receptor expression construct PCMV-Flag-AR was kindly provided by Dr. E. Wilson^75. H2O2 and DHT were purchased from Sigma (St. Louis, Mo.).
(§2) The procedures for western blotting and immunoprecipitation were described previously^48. […]

Assay [3] deals with tyrosine hydroxylase. The settings on record: untransfected CHP-212 cells, DHT 0-1000 nM, forty-eight hours. The protocol: as §1, §2

Procedure for CHP-212 cells: Cells were re-plated and pretreated with 10 nM dihydroxytestosterone or vehicle control (ethanol) for twenty-four hours, followed by H2O2 (300 μM) treatment plus 10 nM dihydroxytestosterone or vehicle control for additional 24 hours. Cell toxicity was evaluated by MTT assay. Values are the mean±s.e.m. n=3 experiments; *: P=0.0068 (t-test).
To test whether dihydroxytestosterone can reverse this increased susceptibility, endogenous DJ-1 expression in CHP-212 cells was inhibited using DJ-1-specific siRNA. […] The siRNA treated cells were then further treated with 10 nM of dihydroxytestosterone in the presence or absence of 300 μM of H2O2.
CHP-212 cells or SH-SY5Y cells were plated in six-well culture dishes and transfected with 100 nM of siRNA against human DJ-1 constructs (SMARTpool reagent, Dharmacon, Lafayette, Colo.) or non-specific control siRNA constructs (siControl non-targeting pool, Dharmacon). […] Cells were harvested forty-eight hours post-transfection for RNA extraction or at Day 1,2, or 4 for Western blot or re-plated in 96 well plate for MTS assay at 48 hrs post-transfection.
Procedure for SH-SY5Y cells: FIG. 8A is a graph that quantifies relative cell viability in SH-SY5Y cells that were pretreated with dihydroxytestosterone (DHT) (1 or 10 nM) or vehicle control (Ethanol) for twenty-four hours, then were subjected to H2O2 (500 μM) treatment plus dihydroxytestosterone (1 or 10 nM) or vehicle control for an additional twenty-four hours. Cell toxicity was evaluated using a 3-(4,5-dimethylthiazol-2-yl)-2,5-diphenyltetrazolium bromide (MTT) assay. […] Cells were re-plated and pretreated with 10 nM dihydroxytestosterone or vehicle control (ethanol) for twenty-four hours, followed by H2O2 (300 μM) treatment plus 10 nM dihydroxytestosterone or vehicle control for additional 24 hours. Cell toxicity was evaluated by MTT assay. Values are the mean±s.e.m. n=3 experiments; *: P=0.0068 (t-test).
To evaluate whether dihydroxytestosterone similarly protects against oxidative stress-induced cell death in human dopaminergic neuroblastoma cells, SH-SY5Y cells were treated with increasing amount of dihydroxytestosterone in the presence or absence of 500 μM of hydrogen peroxide (H2O2). […] The siRNA treated cells were then further treated with 10 nM of dihydroxytestosterone in the presence or absence of 300 μM of H2O2.

As for `C[C@]12CCC(=O)C[C@@H]1CC[C@@H]1[C@@H]2CC[C@]2(C)[C@@H](O)CC[C@@H]12` [dihydroxytestosterone, dihydrotestosterone], the “oxidative stress-induced cell death in DJ-1-specific siRNA treated cells” value in the assay with CHP-212 cells is recorded as “significantly reduced oxidative stress-induced cell death”. Besides, the “activity relative to testosterone” value in assay [1] is on record as 10 times. Further, in the assay on tyrosine hydroxylase [2], the “rescue of tyrosine hydroxylase expression after DJ-1 inactivation” value is listed as “fully rescued”. Besides, the “time of peak level of phosphorylated AKT after treatment” value with AKT (SH-SY5Y cells transiently transfected with Flag-AR) is 15 min; in the assay on AKT (native SH-SY5Y cells), “ninety”. In addition, in the assay with AKT (native SH-SY5Y cells, 5-90 minutes, no increase of total AKT), the AKT phosphorylation entry is on record as “rapid phosphorylation of AKT”. For the same compound, in the assay on SH-SY5Y cells (DHT 1 or 10 nM pretreatment 24 h, then 500 μM H2O2 plus DHT 24 h), the “cell death induced by oxidative stress” value is on record as “significantly blocked cell death”. In addition, the “effect on cell viability in the absence of H2O2” value in the assay with SH-SY5Y cells (DHT 1 or 10 nM, no H2O2) is listed as “subtle effect”. The “tyrosine hydroxylase protein levels” value with tyrosine hydroxylase [3] is on record as “dose-dependent increase”.

These data come from patent publication US20090325911A1, “Use of Androgens for the Treatment of Parkinson's Disease” (CARITAS ST. ELIZABETH MEDICAL CENTER OF BOSTON, INC., priority 2005, published 2009).
